Data on one molecule can be found in patent publication US20060029654A1, “Analgesic patch for sports injury rehabilitation medicine and method to alleviate pain” (priority 2004, published 2006).

For the assay, the system named is pain in the right shoulder and right lateral thigh (right rotator cuff tendonitis and right lateral fasciaitis). Conditions: prior treatment history; injection into the pain trigger zone.

As to `C[C@]12CCC(=O)C=C1CC[C@@H]1[C@@H]2C(=O)C[C@@]2(C)[C@H]1CC[C@]2(O)C(=O)CO` [cortisone], the “duration of temporary pain relief” value is given as 4 to 6 weeks.
